System: Caco-2 cells
Experiment: Iron bioavailability test in the in vitro digestion/Caco-2 cell culture system (ferritin ELISA, Bradford total protein)
Type: in vitro ADME, Human
Method: The assay followed the guidance of Department of Health, Executive Yuan, R.O.C. (TAIWAN) and was conducted to analyze the cytotoxicity and the iron bioavailability of Fe3O4 microspheres in the in vitro digestion/Caco-2 cell culture system. The iron bioavailability from the test article could be evaluated by an in vitro system including enzymatic digestion, iron uptake and ferritin determination via an Enzyme-linked immunosorbent assay (ELISA).
• Cell line: Human colon adenocarcinoma, clone of Caco-2. BCRC 80182. • Culture medium: Minimum Essential Medium (MEM) without any additional iron, iron conc.<8 μg/L. • Culture condition: 37±1° C. with 5% C02 incubator. • EBSS/MES buffer: Earle's balanced salt solution (EBSS) ? 10 mM MES (2-[4-morpholino]-ethanesulfonic acid) buffer, pH 6.0. • MEM enrichment medium: hydrocortisone (4 mg/L) ? 10 mM PIPES (piperazine-N,N′-bis-[2-ethanesulfonic acid]) ? 1% antibiotic-antimycotic solution ? insulin (5 mg/L) ? sodium selenite (5 μg/L) ? triiodothyronine ([…]) and epidermal growth factor (2 μg//L). • Iron removal solution: 1 mM bathophenanthroline disulfonic acid (BPDS) and 5 mM sodium hydrosulfite were dissolved in the rinse solution. • Rinse solution: 140 mM NaCl ? 5 mM KCI ? 10 mM PIPES, pH 7.0. Grouping:
The test article were two sizes of Fe3O4 microspheres with an average diameter of 800 nanometer (nm) and 3000 nm, respectively. Both microspheres were placed in a buffer with a pH value ranges from 5-7. Preferably, the buffer was water or Phosphate Buffered Saline (PBS). In this experiment, the buffer was Phosphate Buffered Saline.
• The digestion of the test article: 0.5 mL of test article was dissolved in 1 mL of 1 N HCl solution, and incubated at 37±1° C. for 16 hours. The final iron concentration was 100 μM. Phosphate buffered saline was used as the negative control and treated in the same condition without the test article. • Iron bioavailability test: • i. […] Measured the absorbance at 595 nm with an ELISA reader. • ii. […] Determined by, the human ferritin enzyme immunoassay test kit. • ii. […]

- Tested Ferritin (Caco-2 cell lysate, 24 hours treatment, 50 μM FeSO4 (positive control)): 61.1 ± 1.6 ng/mL
- Calibrated Ferritin (ferritin calibrated by total protein, Caco-2, 24 hours, 50 μM FeSO4 (positive control)): 255.9±15.4 ng/mg protein
- Iron availability (relative to positive control, Caco-2, 24 hours, 50 μM FeSO4): 100%
SMILES: O=S(=O)([O-])[O-].[Fe+2] [FeSO4]

Reference: patent US8795739B2, “Iron fortified food product and additive” (Magqu Co. Ltd., priority 2012, dated 2014)
